Assay results published in ChEMBL document CHEMBL3044631, “Synthesis of 2-[4,5-dimethyl-1-(phenylamino)-1H-imidazol-2-ylthio]-N-(thiazole-2-yl)acetamide derivatives and their anticancer activities” (2013).

Tests used:
Assay type in all cases: functional
TK-10 = experiment: Anticancer activity against Homo sapiens (human) TK10 cells assessed as cell growth promotion at 10 uM after 48 hr by SRB assay
CAKI-1 = experiment: Anticancer activity against Homo sapiens (human) CAKI-1 cells assessed as cell growth promotion at 10 uM after 48 hr by SRB assay
SNB-19 = experiment: Anticancer activity against Homo sapiens (human) SNB19 cells assessed as cell growth promotion at 10 uM after 48 hr by SRB assay
MDA-MB-231 = experiment: Anticancer activity against Homo sapiens (human) MDA-MB-231/ATCC cells assessed as cell growth promotion at 10 uM after 48 hr by SRB assay
SR = experiment: Anticancer activity against Homo sapiens (human) SR cells assessed as cell growth promotion at 10 uM after 48 hr by SRB assay
UO-31 = experiment: Anticancer activity against Homo sapiens (human) UO31 cells assessed as cell growth promotion at 10 uM after 48 hr by SRB assay
OVCAR-3 = experiment: Anticancer activity against Homo sapiens (human) OVCAR3 cells assessed as cell growth promotion at 10 uM after 48 hr by SRB assay
SK-MEL-2 = experiment: Anticancer activity against Homo sapiens (human) SK-MEL-2 cells assessed as cell growth promotion at 10 uM after 48 hr by SRB assay
SW-620 = experiment: Anticancer activity against Homo sapiens (human) SW620 cells assessed as cell growth promotion at 10 uM after 48 hr by SRB assay
NCI-H460 = experiment: Anticancer activity against Homo sapiens (human) NCI-H460 cells assessed as cell growth promotion at 10 uM after 48 hr by SRB assay
Malme-3M = experiment: Anticancer activity against Homo sapiens (human) MALME-3M cells assessed as cell growth promotion at 10 uM after 48 hr by SRB assay
HT-29 = experiment: Anticancer activity against Homo sapiens (human) HT-29 cells assessed as cell growth promotion at 10 uM after 48 hr by SRB assay
UACC-257 = experiment: Anticancer activity against Homo sapiens (human) UACC257 cells assessed as cell growth promotion at 10 uM after 48 hr by SRB assay
NCI-H522 = experiment: Anticancer activity against Homo sapiens (human) NCI-H522 cells assessed as cell growth promotion at 10 uM after 48 hr by SRB assay
MDA-MB-435 = experiment: Anticancer activity against Homo sapiens (human) MDA-MB-435 cells assessed as cell growth promotion at 10 uM after 48 hr by SRB assay
K562 = experiment: Anticancer activity against Homo sapiens (human) K562 cells assessed as cell growth promotion at 10 uM after 48 hr by SRB assay
DU-145 = experiment: Anticancer activity against Homo sapiens (human) DU145 cells assessed as cell growth promotion at 10 uM after 48 hr by SRB assay
SF-539 = experiment: Anticancer activity against Homo sapiens (human) SF539 cells assessed as cell growth promotion at 10 uM after 48 hr by SRB assay
MCF7 = experiment: Anticancer activity against Homo sapiens (human) MCF7 cells assessed as cell growth promotion at 10 uM after 48 hr by SRB assay
OVCAR-4 = experiment: Anticancer activity against Homo sapiens (human) OVCAR4 cells assessed as cell growth promotion at 10 uM after 48 hr by SRB assay
HOP-92 = experiment: Anticancer activity against Homo sapiens (human) HOP92 cells assessed as cell growth promotion at 10 uM after 48 hr by SRB assay
T47D = experiment: Anticancer activity against Homo sapiens (human) T47D cells assessed as cell growth promotion at 10 uM after 48 hr by SRB assay
M14 = experiment: Anticancer activity against Homo sapiens (human) M14 cells assessed as cell growth promotion at 10 uM after 48 hr by SRB assay
U-251 = experiment: Anticancer activity against Homo sapiens (human) U251 cells assessed as cell growth promotion at 10 uM after 48 hr by SRB assay
NCI-H23 = experiment: Anticancer activity against Homo sapiens (human) NCI-H23 cells assessed as cell growth promotion at 10 uM after 48 hr by SRB assay
PC-3 = experiment: Anticancer activity against Homo sapiens (human) PC3 cells assessed as cell growth promotion at 10 uM after 48 hr by SRB assay
NCI-H322M = experiment: Anticancer activity against Homo sapiens (human) NCI-H322M cells assessed as cell growth promotion at 10 uM after 48 hr by SRB assay
EKVX = experiment: Anticancer activity against Homo sapiens (human) EKVX cells assessed as cell growth promotion at 10 uM after 48 hr by SRB assay
Hs-578T = experiment: Anticancer activity against Homo sapiens (human) Hs 578T cells assessed as cell growth promotion at 10 uM after 48 hr by SRB assay
KM12 = experiment: Anticancer activity against Homo sapiens (human) KM12 cells assessed as cell growth promotion at 10 uM after 48 hr by SRB assay
RPMI-8226 = experiment: Anticancer activity against Homo sapiens (human) RPMI8226 cells assessed as cell growth promotion at 10 uM after 48 hr by SRB assay
OVCAR-8 = experiment: Anticancer activity against Homo sapiens (human) OVCAR8 cells assessed as cell growth promotion at 10 uM after 48 hr by SRB assay
SF-268 = experiment: Anticancer activity against Homo sapiens (human) SF268 cells assessed as cell growth promotion at 10 uM after 48 hr by SRB assay
786-0 = experiment: Anticancer activity against Homo sapiens (human) 786-0 cells assessed as cell growth promotion at 10 uM after 48 hr by SRB assay
LOX IMVI = experiment: Anticancer activity against Homo sapiens (human) LOXIMVI cells assessed as cell growth promotion at 10 uM after 48 hr by SRB assay
SK-OV-3 = experiment: Anticancer activity against Homo sapiens (human) SKOV3 cells assessed as cell growth promotion at 10 uM after 48 hr by SRB assay
BT-549 = experiment: Anticancer activity against Homo sapiens (human) BT549 cells assessed as cell growth promotion at 10 uM after 48 hr by SRB assay
HCT-15 = experiment: Anticancer activity against Homo sapiens (human) HCT15 cells assessed as cell growth promotion at 10 uM after 48 hr by SRB assay
OVCAR-5 = experiment: Anticancer activity against Homo sapiens (human) OVCAR5 cells assessed as cell growth promotion at 10 uM after 48 hr by SRB assay
COLO 205 = experiment: Anticancer activity against Homo sapiens (human) COLO205 cells assessed as cell growth promotion at 10 uM after 48 hr by SRB assay

Structure (SMILES)	Activity (TK-10)	Activity (CAKI-1)	Activity (SNB-19)	Activity (MDA-MB-231)	Activity (SR)	Activity (UO-31)	Activity (OVCAR-3)	Activity (SK-MEL-2)	Activity (SW-620)	Activity (NCI-H460)	Activity (Malme-3M)	Activity (HT-29)	Activity (UACC-257)	Activity (NCI-H522)	Activity (MDA-MB-435)	Activity (K562)	Activity (DU-145)	Activity (SF-539)	Activity (MCF7)	Activity (OVCAR-4)	also measured
CCOC(=O)c1csc(NC(=O)CSc2nc(C)c(C)n2Nc2ccc(C)cc2)n1	77.84%	80.52%	75.4%	62.5%	87.01%	62.65%	108.5%	93.46%	98.75%	109.11%	110.81%	52.44%	88.46%	76.3%	78.21%	78.51%	108.96%	73.62%	80.14%	74.76%	Activity (HOP-92): 44.51%; Activity (T47D): 57.89%; Activity (M14): 70.97%; Activity (U-251): 76.07%; Activity (NCI-H23): 74.71%; Activity (PC-3): 88.3%; Activity (NCI-H322M): 97.18%; Activity (EKVX): 99.66%; Activity (Hs-578T): 139.32%; Activity (KM12): 108.43%; Activity (RPMI-8226): 72.05%; Activity (OVCAR-8): 82.64%; Activity (SF-268): 102.22%; Activity (786-0): 83.82%; Activity (LOX IMVI): 77.98%; Activity (SK-OV-3): 90.71%; Activity (BT-549): 91.44%; Activity (HCT-15): 98.05%; Activity (OVCAR-5): 74.57%; Activity (COLO 205): 80.51%
Cc1nc(SCC(=O)Nc2nccs2)n(Nc2ccccc2)c1C	111.75%	102.08%	108.55%	95.5%	100.2%	84.18%	116.22%	106.73%	116.34%	102.18%	121.77%	99.8%	94.83%	102.09%	104.58%	101.35%	116.36%	86.84%	98.76%	103.25%	Activity (HOP-92): 76.48%; Activity (T47D): 90.52%; Activity (M14): 96.9%; Activity (U-251): 102.44%; Activity (NCI-H23): 97.67%; Activity (PC-3): 93.56%; Activity (NCI-H322M): 118.03%; Activity (EKVX): 115.74%; Activity (Hs-578T): 115.31%; Activity (KM12): 109.29%; Activity (RPMI-8226): 100.95%; Activity (OVCAR-8): 95.17%; Activity (SF-268): 106.58%; Activity (786-0): 103.46%; Activity (LOX IMVI): 99.28%; Activity (SK-OV-3): 102.5%; Activity (BT-549): 96.32%; Activity (HCT-15): 97.16%; Activity (OVCAR-5): 80.93%; Activity (COLO 205): 117.71%
COc1ccc(Nn2c(SCC(=O)Nc3nccs3)nc(C)c2C)cc1	105.37%	90.35%	109.69%	105.41%	104%	86.71%	113.42%	92.7%	113.7%	108.22%	119.7%	102.36%	108.29%	95.16%	97.68%	99.68%	112.49%	101.05%	102.31%	110.54%	Activity (HOP-92): 117.01%; Activity (T47D): 94.87%; Activity (M14): 107.71%; Activity (U-251): 104.49%; Activity (NCI-H23): 106.56%; Activity (PC-3): 103.43%; Activity (NCI-H322M): 110.58%; Activity (EKVX): 108.98%; Activity (Hs-578T): 109.7%; Activity (KM12): 96.74%; Activity (RPMI-8226): 102.22%; Activity (OVCAR-8): 103.25%; Activity (SF-268): 103.59%; Activity (786-0): 100.29%; Activity (LOX IMVI): 105.4%; Activity (SK-OV-3): 108.56%; Activity (BT-549): 105.55%; Activity (HCT-15): 100.06%; Activity (OVCAR-5): 89.33%; Activity (COLO 205): 107.27%
